Experimental data reported in patent publication US7816339B2, “Treatments for Flaviviridae virus infection” (priority 2005, dated 2010).

Legend:
Assay type in all cases: cell-based
[1] = system: replicon RNA (amplicon in NS5B), luciferase replicon cell line; test: Taqman assay of replicon RNA level in replicon cells; conditions: Taqman real-time PCR, 2 days incubation; for IC50: 48 h, GADPH RNA as endogenous control, read-out: IC50: drug dose necessary to reach a 2-fold decrease in replicon RNA level
Method: (§1) Cell Culture. Cells of the luciferase replicon cell line (Vrolijk et al., J. Virol. Methods 110:201-209 (2003)) was grown in Dulbecco's minimal essential medium (DMEM) supplemented with 2 mM glutamine, non-essential amino acids (NEAA), 10 mM HEPES, 0.075% sodium bicarbonate, 100 U/ml penicillin and 100 μg/mL streptomycin, and 10% fetal bovine serum. To maintain the selection for replicon, 0.3 mg/mL of G418 were added to the culture media.
Taqman Assay Method. Replicon cells were seeded at 4000 cells/well in 96-well collagen 1-coated Biocoat Plates (Becton Dickinson). Twenty-four hours post-seeding, compounds were added to replicon cells. The final concentration of DMSO was 0.5%, fetal bovine serum was 10%, and no G418 was added. Cells were incubated with compounds for 2 days, at which point the cells were washed with PBS and lysed in 1× cell lysis buffer (Ambion). The replicon RNA level was measured using real time PCR (Taqman assay). The amplicon was located in NS5B. The PCR primers were 5B.2F, ATGGACAGGCGCCCTGA; 5B.2R, […]; the probe sequence was FAM-labeled CACGCCATGCGCTGCGG. GADPH RNA was used as an endogenous control and was amplified in the same reaction as NS5B (multiplex PCR) using primers and VIC-labeled probe recommended by the manufacturer (PE Applied Biosystem). The real-time RT-PCR reactions were run on the ABI PRISM 7900HT Sequence Detection System using the following program: 48° C. for 30 minutes, 95° C. for 10 minutes, 40 cycles of 95° C. for 15 seconds, 60° C. for 1 minute. The ACT values (CT5B-CTGADPH) were plotted against drug concentration and fitted to the sigmoid dose response model using SAS system (SAS Institute, Inc.) or PRISM software (Graphpad Software, Inc.). IC50 was the drug dose response necessary to achieve an increase of 1 in ΔCT over the projected baseline. IC90 was the drug dose response necessary to achieve an increase of 3.2 over the baseline. All Taqman reagents were from PE Applied Biosystem.
(§2) IC50: drug dose necessary to reach a 2-fold decrease in replicon RNA level. IC90: drug dose necessary to reach a 10-fold decrease in replicon RNA level EC50: drug dose necessary to reach a 2-fold decrease in luciferase signal. EC90: drug dose necessary to reach a 10-fold reduction in luciferase signal. CC50: drug dose necessary to reduce the MTS signal to 50% of that of no drug control TI: CC50/EC50 in 5-2 cells. All units are μM.

[2] = system: replicon (luciferase signal), luciferase replicon cell line; test: Dose-response luciferase assay in replicon cells; conditions: 2 days incubation, 0.5% DMSO, 10% fetal bovine serum; for EC50: 48 h, read-out: EC50: drug dose necessary to reach a 2-fold decrease in luciferase signal
Method: as §1
Dose-Response and Luciferase Assays. Replicon cells were seeded at 5000 cells/well in 96-well collagen 1-coated Biocoat plates (Becton Dickinson; Palo Alto, Calif.). Twenty-four hrs post-seeding, compounds (see Table 1 below) were added to replicon cells. The final concentration of DMSO was 0.5%, fetal bovine serum was 10%, and G418 was not added. The cells were incubated with the compounds for 2 days, at which point the cells were washed with PBS and lysed in 40 μl Glo Lysis Buffer (Promega; Madison, Wis.). 20 μl of lysates were mixed with 100 μl Luciferase Assay Reagent (Promega) and read on a Microtiter Plate Luminometer MLX (DYNEX Technologies; Chantilly, Va.). The fold of reduction in luciferase signal compared to no compound control was plotted against drug concentration and fitted to the sigmoid dose response model using PRISM software (Graphpad Software Inc.; San Diego, Calif.).
as §2

replicon cells = test: Cell toxicity assay (MTS) on replicon cells; conditions: for CC50: MTS assay on replicon cells, read-out: CC50: drug dose necessary to reduce the MTS signal to 50% of that of no drug control; for TI: CC50/EC50 in 5-2 cells: ratio CC50/EC50, 5-2 cells
Method: (§3) Cell toxicity assay. The toxicity of compounds on the replicon cells were measured by MTS assay following manufacturer's instructions (Promega). Briefly, 20 μl of CellTiter 96®RAQueous One Solution Reagent were added to each well of the 96-well plate containing 100 μl of culture medium. The plates were incubated for 30-60 minutes before reading OD by DYNEX MRX.
as §2

[3] = Cell toxicity assay (MTS) on replicon cells; conditions: human; MTS assay on replicon cells; read-out: CC50: drug dose necessary to reduce the MTS signal to 50% of that of no drug control
Method: as §3, §2

Row | SMILES | IC90: drug dose necessary to reach a 10-fold decrease in replicon RNA level [1] | EC90: drug dose necessary to reach a 10-fold reduction in luciferase signal [2] [μM] | CC50 (replicon cells) [µM] | TI: CC50/EC50 in 5-2 cells (replicon cells) | IC50 [1] [µM] | EC50 [2] [µM] | CC50 at 2 days [3] [µM]
1 | CC(C)N(C=Nc1ccn([C@@H]2O[C@H](CO)[C@@H](O)[C@@H]2O)c(=O)n1)C(C)C [X, N^4-[(Diisopropylamino)methylene]arabinocytidine] | >10 μM | 2 | > 10 | >300 |  |  | 
2 | NC(=O)c1ncn([C@@H]2O[C@H](CO)[C@@H](O)[C@H]2O)n1 [Ribavirin, 1-β-D-ribofuranosyl-1H-1,2,4-triazole-3-carboxamide, reference compound] | not reached | 80 |  | ~25 | 40 to 100 | 20 | ~500
3 | Nc1ccn([C@@H]2O[C@H](CO)[C@@H](O)[C@@H]2O)c(=O)n1 [Cytarabine, reference compound] | >10 μM | 4 |  | >200 | ~10 | 0.05 | > 10
4 | O=c1nc(N=CN2CCCCC2)ccn1[C@@H]1O[C@H](CO)[C@@H](O)[C@@H]1O [XI, N^4-[Piperidinomethylene]arabinocytidine] | >10 μM | 8 | > 10 | >100 |  |  | 
5 | O=c1nc(N=CN2CCCC2)ccn1[C@@H]1O[C@H](CO)[C@@H](O)[C@@H]1O [XIII, N^4-[Pyrrolidinomethylene]arabinocytidine] | >10 μM | 5 | > 10 | >100 |  |  | 
6 | O=c1nc(/N=C/N2CCOCC2)ccn1[C@@H]1O[C@H](CO)C(O)C1O (stereo in doubt) [XII, N^4-[Morpholinomethylene]arabinocytidine] | >10 μM | 1.5 |  | >500 | > 10 | 0.02 | > 10
